Results as given in ChEMBL document CHEMBL1124036 (J Med Chem, 1988).

Assays:
L1210 = assay: Concentration required to produce 50% reduction in the rate of proliferation of L1210 cells; type: functional, cell-based; settings: Mus musculus
HEp-2 = assay: Concentration required to produce 50% reduction in cloning of H.Ep.No.2 cells by 50%; type: functional, cell-based; settings: Homo sapiens

SMILES: Nc1nc(F)nc2c1ncn2C1O[C@H](CO)[C@H](O)[C@H]1N (stereo partly specified)
- IC50 (L1210): 120 µM
- IC50 (HEp-2): 12 µM

SMILES: [N-]=[N+]=N[C@H]1C(n2cnc3c(N)nc(F)nc32)O[C@H](CO)[C@@H]1O (stereo partly specified)
- IC50 (L1210): 100 µM
- IC50 (HEp-2): 29 µM

SMILES: Nc1nc(Cl)nc2c1ncn2C1O[C@H](CO)[C@H](O)[C@H]1N (stereo partly specified)
- IC50 (L1210): > 120 µM
- IC50 (HEp-2): 80 µM

SMILES: Nc1nc(Cl)nc2c1ncn2C1O[C@H](CO)[C@H](O)[C@H]1Br (stereo partly specified)
- IC50 (L1210): > 110 µM
- IC50 (HEp-2): > 110 µM

SMILES: Nc1nc(Cl)nc2c1ncn2C1O[C@H](CO)[C@H](O)[C@H]1Cl (stereo partly specified)
- IC50 (L1210): > 120 µM
- IC50 (HEp-2): > 120 µM

SMILES: Nc1nc(Cl)nc2c1ncn2C1O[C@H](CO)[C@H](O)[C@H]1I (stereo partly specified)
- IC50 (L1210): > 100 µM
- IC50 (HEp-2): > 100 µM

SMILES: [N-]=[N+]=N[C@H]1C(n2cnc3c(N)nc(Cl)nc32)O[C@H](CO)[C@@H]1O (stereo partly specified)
- IC50 (L1210): > 120 µM
- IC50 (HEp-2): > 120 µM

SMILES: Nc1nc(F)nc2c1ncn2C1O[C@H](CO)[C@H](O)[C@H]1Cl (stereo partly specified)
- IC50 (L1210): 60 µM
- IC50 (HEp-2): 100 µM
